# Literature values as cited in PMC8201753 (ACS Medicinal Chemistry Letters, 2021).
# System: ERα-dependent cells
# Conditions: cited from earlier work
smiles,measurement,value
"C=CC(C)(C)OC[C@H]1O[C@H](O[C@@H]2C3=C([C@H](C)COC(C)=O)C[C@H](O)[C@]3(C)/C=C3/[C@@H](COC)CC[C@H]3[C@@H](C)[C@H]2O)[C@H](O)[C@@H](OC(C)=O)[C@@H]1O [FC-A, fusicoccin-A]",Growth of ERα-dependent cells,blocks growth
